Results published in patent US9944602B2, “Piperidinone herbicides” (E. I. DU PONT DE NEMOURS AND COMPANY, priority 2014, dated 2018).

Experiments:
Format in all cases: in vivo
[1] = test system: ryegrass, Italian (Italian ryegrass, Lolium multiflorum); experiment: Test A postemergence ryegrass, Italian; settings: 0 to 100 scale, 0 is no effect, 100 is complete control
Description: (§1) Seeds of plant species selected from barnyardgrass (Echinochloa crus-galli), kochia (Kochia scoparia), ragweed (common ragweed, Ambrosia elatior), ryegrass, Italian (Italian ryegrass, Lolium multiflorum), crabgrass, large (large crabgrass, Digitaria sanguinalis), foxtail, giant (giant foxtail, Setaria faberii), morningglory (Ipomoea spp.), pigweed (Amaranthus retroflexus), velvetleaf (Abutilon theophrasti), wheat (Triticum aestivum), and corn (Zea mays) were planted into a blend of loam soil and sand and treated preemergence with a directed soil spray using test chemicals formulated in a non-phytotoxic solvent mixture which included a surfactant.
(§2) At the same time, plants selected from these crop and weed species and also blackgrass (Alopecurus myosuroides), and galium (catchweed bedstraw, Galium aparine) were planted in pots containing the same blend of loam soil and sand and treated with postemergence applications of test chemicals formulated in the same manner. Plants ranged in height from 2 to 10 cm and were in the one- to two-leaf stage for the postemergence treatment. Treated plants and untreated controls were maintained in a greenhouse for approximately 10 d, after which time all treated plants were compared to untreated controls and visually evaluated for injury. Plant response ratings, summarized in Table A, are based on a 0 to 100 scale where 0 is no effect and 100 is complete control. A dash (-) response means no test result.

[2] = test system: pigweed (Amaranthus retroflexus); experiment: Test A preemergence pigweed; settings: 0 to 100 scale, 0 no effect, 100 complete control
Description: as §1, §2

[3] = test system: sedge, umbrella (small-flower umbrella sedge, Cyperus difformis); experiment: Test B flooded paddy test sedge, umbrella; settings: Table B, Flood, 250 g ai/ha, scale 0 to 100
Experimental: (§3) Plant species in the flooded paddy test selected from rice (Oryza sativa), sedge, umbrella (small-flower umbrella sedge, Cyperus difformis), ducksalad (Heteranthera limosa), and barnyardgrass (Echinochloa crus-galli) were grown to the 2-leaf stage for testing. At the time of treatment, test pots were flooded to 3 cm above the soil surface, treated by application of test compounds directly to the paddy water, and then maintained at that water depth for the duration of the test. Treated plants and controls were maintained in a greenhouse for 13 to 15 d, after which time all species were compared to controls and visually evaluated. […] A dash (-) response means no test result.

[4] = test system: ragweed (common ragweed, Ambrosia elatior); experiment: Test A postemergence ragweed; settings: 0 to 100 scale, 0 is no effect, 100 is complete control
Description: as §1, §2

[5] = test system: pigweed (Amaranthus retroflexus); experiment: Test A postemergence pigweed; settings: 0 to 100 scale, 0 is no effect, 100 is complete control
Description: as §1, §2

[6] = test system: barnyardgrass (Echinochloa crus-galli); experiment: Test B flooded paddy test barnyardgrass; settings: Table B, Flood, 250 g ai/ha, scale 0 to 100
Experimental: as §3

[7] = test system: ducksalad (Heteranthera limosa); experiment: Test B flooded paddy test ducksalad; settings: Table B, Flood, 250 g ai/ha, scale 0 to 100
Experimental: as §3

[8] = test system: foxtail, giant (giant foxtail, Setaria faberii); experiment: Test A postemergence foxtail, giant; settings: 0 to 100 scale, 0 is no effect, 100 is complete control
Description: as §1, §2

rice (Oryza sativa) = experiment: Test B flooded paddy test rice; settings: Table B, Flood, 250 g ai/ha, scale 0 to 100
Experimental: as §3

corn (Zea mays) = experiment: Test A postemergence corn; settings: 0 to 100 scale, 0 is no effect, 100 is complete control
Description: as §1, §2

[9] = test system: wheat (Triticum aestivum); experiment: Test A postemergence wheat; settings: 0 to 100 scale, 0 is no effect, 100 is complete control
Description: as §1, §2

kochia (Kochia scoparia) [10] = experiment: Test A preemergence kochia; settings: 0 to 100 scale, 0 no effect, 100 complete control
Description: as §1, §2

[11] = test system: galium (catchweed bedstraw, Galium aparine); experiment: Test A postemergence galium; settings: 0 to 100 scale, 0 is no effect, 100 is complete control
Description: as §1, §2

[12] = test system: ragweed (common ragweed, Ambrosia elatior); experiment: Test A preemergence ragweed; settings: 0 to 100 scale, 0 no effect, 100 complete control
Description: as §1, §2

[13] = test system: barnyardgrass (Echinochloa crus-galli); experiment: Test A postemergence barnyardgrass; settings: 0 to 100 scale, 0 is no effect, 100 is complete control
Description: as §1, §2

[14] = test system: ryegrass, Italian (Italian ryegrass, Lolium multiflorum); experiment: Test A preemergence ryegrass, Italian; settings: 0 to 100 scale, 0 no effect, 100 complete control
Description: as §1, §2

[15] = test system: blackgrass (Alopecurus myosuroides); experiment: Test A postemergence blackgrass; settings: 0 to 100 scale, 0 is no effect, 100 is complete control
Description: as §1, §2

[16] = test system: barnyardgrass (Echinochloa crus-galli); experiment: Test A preemergence barnyardgrass; settings: 0 to 100 scale, 0 no effect, 100 complete control
Description: as §1, §2

kochia (Kochia scoparia) [17] = experiment: Test A postemergence kochia; settings: 0 to 100 scale, 0 is no effect, 100 is complete control
Description: as §1, §2

[18] = test system: foxtail, giant (giant foxtail, Setaria faberii); experiment: Test A preemergence foxtail, giant; settings: 0 to 100 scale, 0 no effect, 100 complete control
Description: as §1, §2

Row | Compound | Plant response rating, Ryegrass, Italian ([1]; 125 g ai/ha) | Plant response rating, Ryegrass, Italian ([1]; 500 g ai/ha) | Pigweed plant response rating ([2]; 125 g ai/ha) | Pigweed plant response rating ([2]; 500 g ai/ha) | Plant response rating [3] | Plant response rating, Ragweed ([4]; 125 g ai/ha) | Plant response rating, Ragweed ([4]; 500 g ai/ha) | Plant response rating, Pigweed ([5]; 125 g ai/ha) | Plant response rating, Pigweed ([5]; 500 g ai/ha) | Plant response rating [6] | Plant response rating [7] | Plant response rating, Foxtail, Giant ([8]; 125 g ai/ha) | Plant response rating, Foxtail, Giant ([8]; 500 g ai/ha) | Plant response rating (rice (Oryza sativa)) | Plant response rating, Corn (corn (Zea mays); 125 g ai/ha) | Plant response rating, Corn (corn (Zea mays); 500 g ai/ha) | Plant response rating, Wheat ([9]; 125 g ai/ha) | Plant response rating, Wheat ([9]; 500 g ai/ha) | Kochia plant response rating (kochia (Kochia scoparia) [10]; 125 g ai/ha) | Kochia plant response rating (kochia (Kochia scoparia) [10]; 500 g ai/ha) | further results
1 | O=C1NCC[C@@H](c2ccc(C(F)(F)F)cc2)[C@@H]1C(=O)Nc1ccc(F)c(F)c1F [Compound 55] | 0 | 0 | 0 | 0 | 0 | 0 | 0 | 0 | 0 | 0 | 0 | 0 | 0 | 0 | 0 | 0 | 0 | 0 | 0 | 0 | Plant response rating, Galium ([11]; 125 g ai/ha): 0; Plant response rating, Galium ([11]; 500 g ai/ha): 0; Ragweed plant response rating ([12]; 125 g ai/ha): 0; Ragweed plant response rating ([12]; 500 g ai/ha): 0; Plant response rating, Barnyardgrass ([13]; 125 g ai/ha): 0; Plant response rating, Barnyardgrass ([13]; 500 g ai/ha): 0; Ryegrass, Italian plant response rating ([14]; 125 g ai/ha): 0; Ryegrass, Italian plant response rating ([14]; 500 g ai/ha): 0; Plant response rating, Blackgrass ([15]; 125 g ai/ha): 0; Plant response rating, Blackgrass ([15]; 500 g ai/ha): 0; Barnyardgrass plant response rating ([16]; 125 g ai/ha): 0; Barnyardgrass plant response rating ([16]; 500 g ai/ha): 0; Plant response rating, Kochia (kochia (Kochia scoparia) [17]; 125 g ai/ha): 0; Plant response rating, Kochia (kochia (Kochia scoparia) [17]; 500 g ai/ha): 0; Foxtail, Giant plant response rating ([18]; 125 g ai/ha): 0; Foxtail, Giant plant response rating ([18]; 500 g ai/ha): 0
2 | O=C1NCC[C@@H](c2cccc(C(F)(F)F)c2)[C@@H]1C(=O)Nc1cccc(Cl)c1F [Compound 24] | 0 | 20 | 0 | 0 | 0 | 0 | 0 | 0 | 0 | 0 | 0 | 50 | 80 | 0 | 20 | 30 | 20 | 30 | 0 | 0 | Plant response rating, Galium ([11]; 125 g ai/ha): 0; Plant response rating, Galium ([11]; 500 g ai/ha): 0; Ragweed plant response rating ([12]; 125 g ai/ha): 0; Ragweed plant response rating ([12]; 500 g ai/ha): 0; Plant response rating, Barnyardgrass ([13]; 125 g ai/ha): 50; Plant response rating, Barnyardgrass ([13]; 500 g ai/ha): 80; Ryegrass, Italian plant response rating ([14]; 125 g ai/ha): 0; Ryegrass, Italian plant response rating ([14]; 500 g ai/ha): 0; Plant response rating, Blackgrass ([15]; 125 g ai/ha): 0; Plant response rating, Blackgrass ([15]; 500 g ai/ha): 30; Barnyardgrass plant response rating ([16]; 125 g ai/ha): 50; Barnyardgrass plant response rating ([16]; 500 g ai/ha): 80; Plant response rating, Kochia (kochia (Kochia scoparia) [17]; 125 g ai/ha): 0; Plant response rating, Kochia (kochia (Kochia scoparia) [17]; 500 g ai/ha): 0; Foxtail, Giant plant response rating ([18]; 125 g ai/ha): 70; Foxtail, Giant plant response rating ([18]; 500 g ai/ha): 80
